Reference: patent publication US7432306B2, “Method for preparing novel transcription factors and use” (NRL Pharma, Inc., priority 2005, dated 2008)

Columns and labels:
ICR male mice [1] = test: Mouse serum cholesterol lowering action; assay type: in vivo; details: one week; for Total Cholesterol in Serum: ICR mice; for Rate of Change (total cholesterol in serum): vs control
Procedure: Thirty 5-week-old ICR male mice were bred by allowing mouse standard feed and water ad libitum. The mice were randomly classified into three groups, and one group was taken as a control group to which no drug was administered, and feed containing 0.1% of 4-O-methylasco-chlorin diethylacetal (MAC-DEA) and feed containing 0.05% of MAC-DEA were given to the other two groups, respectively. The body weight, the intake of feed and the amount of drinking water were measured every other day. One week after giving feed, blood was collected and the total cholesterol in serum and the neutral fat were determined.

db/db mice = test: Action of MAC-DEA on db/db mouse; assay type: in vivo; details: for Blood Sugar / Serum Insulin / Serum Neutral Fat: db/db mice
Procedure: Eighteen 7-week-old male db/db mice were bred for one week by allowing mouse standard feed and water ad libitum. The mice were randomly classified into three groups of six mice and each group was housed in a urine collection rat cage and the intake of feed, the amount of drinking water, the amount of urine and the amount of urine sugar excreted were determined everyday. Feed CE-2 was given to the first group as a control group, and feed CE-2 mixed with 0.05% of 4-O-methylascochlorin diethylacetal (MAC-DEA) and feed CE-2 mixed with 0.1% of MAC-DEA were given to the second group and the third group, respectively. The mice were allowed feed and drinking water ad libitum and on the 7th day, blood was collected and the blood sugar, the serum neutral fat and the serum insulin were determined.

ICR male mice [2] = test: Syngeneic Langerhans islet transplanted streptozotocin diabetic mouse; assay type: in vivo
Procedure: Thirty 5-week-old ICR male mice were randomly classified into six groups and all mice were fed for one week by allowing mouse standard diet CE-2 (a product of Japan CLEA Co., Ltd.). Then, the mice in the first to third groups were intravenously injected with 50 mg/kg of streptozotocin and after one week, blood was collected from the orbit and the blood sugar and the serum insulin were determined to confirm the onset of insulin-dependent diabetes. Ten days after the streptozotocin injection, pancreatic Langerhans islets were removed from the age-matched normal mice in the fourth to sixth groups and 20 pancreatic Langerhans islets were subcutaneously transplanted in the back of each of the diabetic mice. Immediately after transplantation, diet CE-2 containing 0.1% of MAC-DE was given to the first group, diet CE-2 containing 0.05% of MAC-DE was given to the second group and CE-2 was given to the third group. The diabetic mice were further fed for 60 days, and blood was collected from the orbit and the blood sugar and the serum insulin were determined every 15 days.

ICR male mice [3] = test: Fat accumulation in ICR mice fed 13 weeks; assay type: in vivo, mouse; details: liver and epididymal adipose tissue
Excerpt: Thirty 5-week-old ICR male mice were randomly classified into three group of ten mice, and mouse standard diet CE-2 (a product of Japan CLEA Co., Ltd.) was given to the first group, and diet CE-2 containing 0.1% of 4-O-methylascochlorin diethylacetal (MAC-DE) was given to the second group and diet CE-2 containing 0.05% of MAC-DE was given to the third group and the mice were continued to be fed. […] After 13 weeks, the liver and the epididymal adipose tissue were removed from the mice and lipid was extracted by the Folch method and the triglyceride content was determined. As a result, the triglyceride content in the 0.05% MAC-DE group was reduced 27%, and the triglyceride content in the 0.1% MAC-DE group was reduced 35%. From this fact it would be understood that MAC-DE inhibits fat accumulation.

ddY male mice = test: Internal fat accumulation in ddY mice fed 13 weeks; assay type: in vivo, mouse; details: livers and epididymal adipose tissues
Excerpt: Thirty 5-week-old ddY male mice were randomly classified into three groups of ten mice and fed for 13 weeks by allowing feed and water ad libidum. Meanwhile, the mouse standard diet CE-2 (a product of Japan CLEA Co., Ltd.) was given to the first group, and diet CE-2 containing 0.1% of 4-O-methylascochlorin diethylacetal (MAC-DE) was given to the second group of mice and diet CE-2 containing 0.05% of MAC-DE was given to the third group. […] After 13 weeks, the livers and the epididymal adipose tissues were removed from the mice and lipid was extracted by the Folch method and the triglyceride content was determined. As a result, the triglyceride content in the 0.05% MAC-DE group was reduced 27%, and the neutral fat content in the 0.1% MAC-DE group was reduced 35%. From this fact it would be understood that MAC-DE inhibits internal fat accumulation.

[4] = system: Ehrlich ascites carcinoma; test: Inhibition of Ehrlich solid tumor; assay type: in vivo, mouse; details: 7 days, 21st day
Procedure: Eighteen five-week-old ICR male mice were subcutaneously inoculated with 10^6 cells of Ehrlich ascites carcinoma […] and after 24 hours, and the mice were classified into three groups of six mice, and 4-O-methylascochlorin diethylacetal (MAC-DE) was suspended in 0.2% Tween-80 and 1 mg/kg and 4 mg/kg were orally administered to the first group and the second group twice a day at 9:00 and 20:00, respectively, and a MAC-DE-free Tween-80 aqueous solution was given to the third group as a control group. The administration was continued for successive 7 days and after completion of the administration, the mice were fed for two weeks. On the 21st day, a nodular tumor was removed from the mice and the body weight was determined and the effect of MAC-DE on the inhibition of tumor growth was examined.

[5] = cited from earlier work
C57BL ksj (db/db) = details: hereditary obese diabetic mouse C57BL ksj (db/db); cited from earlier work
[6] = cited from earlier work; remark: listed apart in the source

With CCOC(OCC)c1c(C)c(Cl)c(OC)c(C/C=C(C)/C=C/[C@@]2(C)[C@H](C)CCC(=O)[C@@H]2C)c1O [MAC-DEA, 4-O-methylascochlorin diethylacetal] the “Total Cholesterol in Serum” value (ICR male mice [1]; 0.05% in feed) was 97 mg/dL, the “Rate of Change (total cholesterol in serum)” value (ICR male mice [1]; 0.05% in feed) was −17.8% and the “Total Cholesterol in Serum” value (ICR male mice [1]; 0.1% in feed) was 90 mg/dL. The “Rate of Change (total cholesterol in serum)” value (ICR male mice [1]; 0.1% in feed) was −23.7%, the “Blood Sugar” value (db/db mice; 0.05% in feed CE-2, 7th day) was 273 mg/dL and the “Serum Insulin” value (db/db mice; 0.05% in feed CE-2, 7th day) was 175 ·U/ml. The “Serum Neutral Fat” value (db/db mice; 0.05% in feed CE-2, 7th day) was 259 mg/dL, the “Amount of Drinking Water” value (db/db mice; 0.05% in feed CE-2, db/db mice) was 5.4 ml/mouse and the “Amount of Urine” value (db/db mice; 0.05% in feed CE-2, db/db mice) was 2.5 ml/mouse. For the same compound, the “Amount of Urine Sugar Excreted” value (db/db mice; 0.05% in feed CE-2, db/db mice) was 47 mg/dL, the “Blood Sugar” value (db/db mice; 0.1% in feed CE-2, 7th day) was 239 mg/dL and the “Serum Insulin” value (db/db mice; 0.1% in feed CE-2, 7th day) was 132 ·U/ml. The “Serum Neutral Fat” value (db/db mice; 0.1% in feed CE-2, 7th day) was 248 mg/dL, the “Amount of Drinking Water” value (db/db mice; 0.1% in feed CE-2, db/db mice) was 3.2 ml/mouse and the “Amount of Urine” value (db/db mice; 0.1% in feed CE-2, db/db mice) was 1.7 ml/mouse. The “Amount of Urine Sugar Excreted” value (db/db mice; 0.1% in feed CE-2, db/db mice) was 10 mg/dL, the “Blood Sugar” value (ICR male mice [2]; 0.05% in diet CE-2, Day 0) was 566 mg/dL and the Insulin (ICR male mice [2]; 0.05% in diet CE-2, Day 0) was <2 ·U/ml. The “Blood Sugar” value (ICR male mice [2]; 0.05% in diet CE-2, Day 15) was 143 mg/dL, the Insulin (ICR male mice [2]; 0.05% in diet CE-2, Day 15) was 5 ·U/ml and the “Blood Sugar” value (ICR male mice [2]; 0.05% in diet CE-2, Day 30) was 148 mg/dL. The Insulin (ICR male mice [2]; 0.05% in diet CE-2, Day 30) was 5 ·U/ml, the “Blood Sugar” value (ICR male mice [2]; 0.05% in diet CE-2, Day 45) was 125 mg/dL and the Insulin (ICR male mice [2]; 0.05% in diet CE-2, Day 45) was 6 ·U/ml. The “Blood Sugar” value (ICR male mice [2]; 0.05% in diet CE-2, Day 60) was 118 mg/dL, the Insulin (ICR male mice [2]; 0.05% in diet CE-2, Day 60) was 6 ·U/ml and the “Blood Sugar” value (ICR male mice [2]; 0.1% in diet CE-2, Day 0) was 583 mg/dL. For the same compound, the Insulin (ICR male mice [2]; 0.1% in diet CE-2, Day 0) was <2 ·U/ml, the “Blood Sugar” value (ICR male mice [2]; 0.1% in diet CE-2, Day 15) was 121 mg/dL and the Insulin (ICR male mice [2]; 0.1% in diet CE-2, Day 15) was 5 ·U/ml. The “Blood Sugar” value (ICR male mice [2]; 0.1% in diet CE-2, Day 30) was 118 mg/dL, the Insulin (ICR male mice [2]; 0.1% in diet CE-2, Day 30) was 6 ·U/ml and the “Blood Sugar” value (ICR male mice [2]; 0.1% in diet CE-2, Day 45) was 119 mg/dL. For the same compound, the Insulin (ICR male mice [2]; 0.1% in diet CE-2, Day 45) was 6 ·U/ml, the “Blood Sugar” value (ICR male mice [2]; 0.1% in diet CE-2, Day 60) was 131 mg/dL and the Insulin (ICR male mice [2]; 0.1% in diet CE-2, Day 60) was 6 ·U/ml. For the same compound, the “triglyceride content, reduction” value (ICR male mice [3]; 0.05% in diet) was 27%, the “triglyceride content, reduction” value (ICR male mice [3]; 0.1% in diet) was 35% and the “triglyceride content, reduction” value (ddY male mice; 0.05% in diet) was 27%. The “neutral fat content, reduction” value (ddY male mice; 0.1% in diet) was 35%, the “Inhibition Ratio (tumor)” value ([4]; 1 mg/kg oral twice a day) was 81% and the “Weight of Tumor” value ([4]; 1 mg/kg oral twice a day) was 0.25 g/mouse. For the same compound, the “Inhibition Ratio (tumor)” value ([4]; 4 mg/kg oral twice a day) was 96% and the “Weight of Tumor” value ([4]; 4 mg/kg oral twice a day) was 0.06 g/mouse.
In the case of CC(C=CC1(C)C(C)CCC(=O)C1C)=CCc1c(O)c(C=O)c(C)c(Cl)c1OCC(=O)O (centres unmarked) [AS-6, 4-O-carboxymethylasco-chlorin], the “soluble in water at a concentration” value ([5]; pH of 7.2 to 7.7 in the small intestine) is listed as at least 6%, the carbohydrate metabolism (C57BL ksj (db/db)) is listed as “improves in the carbohydrate metabolism” and the “toxicity to the liver” value ([6]; oral, blood concentration quickly rises) is listed as “the toxicity to the liver is easily exhibited”. For the same compound, the excretion ([6]; orally administered to an animal) was “quickly excreted”.
In the case of COc1c(Cl)c(C)c(C=O)c(O)c1C/C=C(C)/C=C/[C@@]1(C)[C@H](C)CCC(=O)[C@@H]1C [MAC, 4-O-Methylascochlorin], the solubility in water [5] is listed as “less than 0.7 μg/ml” and the bioavailability ([6]; oral, animals) is listed as “very poor bioavailability”.
